The text below walks through data of US5179089A, “Isoquinoline compounds, compositions and use” (Chinoin Gyogyszer es Vegyeszeti Termekek Gyara Rt., priority 1990, dated 1993).

Counter-ions that a name gives are not always drawn. Like-named read-outs stand apart in the source and are kept apart here.

In experiment [1] the test system is histamine-induced constriction of isolated tracheal smooth muscle of guinea pig. Description: Inhibition of the histamine-induced constriction of isolated tracheal smooth muscle of guinea pig. The following applies: isolated guinea pig trachea; for IC50: Cavia porcellus, 0.25 h, read-out: Inhibition of the histamine-induced constriction of isolated tracheal smooth muscle of guinea pig pd'2 (converted). Here is the method:
I Study on the Effects Against Spasmogenic Mediators [modified method of J. C. […] The investigation on isolated organs were carried out as follows. OHF Lt/R9 guinea pigs of both sexes weighing 300 to 400 g each were anaesthetized by pentobarbital. Their trachea was removed and sectioned in the opposite side to the site of smooth muscle in longitudinal direction. Subsequently, a strip-like preparation was obtained by […] cutting. […] A rest load of 0.5 g was used. Several washings were carried out during the incubation period of 30 minutes. The change in the tension of the tracheal smooth muscle was followed by using an isometric Grass FT-03 type tensiometer sensor device. A washing was made following the cumulative dose series of the given mediator (e.g. histamine). After reaching the base line, by 15 minutes after administration of the given concentration of the inhibitory (antiasthmatic) substance to be tested, the next cumulative dose series of the mediator was administered. In the case of an inhibitory action, the strength of effect, following the second dose series of the mediator, was […] in comparison to that of the first (control) series. For characterization of strength of the competitive antagonistic effect the pA2 value was determined according to the method of […] A pd'2 value was calculated [J. M. Van Rossum: Arch. Int.

For experiment [2], the system named is carrageenin-induced rat paw edema. Put plainly: Carrageenin-induced rat paw edema test. The settings on record: Rattus norvegicus, po, 50 mg/kg (p.o.), read-out: Percentage of the protective effect. Format: in vivo, rat (female CFY). The protocol:
Proc. Soc. Exp. Med. 111, 544 (1962)]. Female CFY rats weighing 100 to 120 g each were used after starvation for 24 hours. The inflammation was induced by injecting 0.1 ml of 1% carrageenin solution into the right hind paw plant. The severity of inflammation was determined by using an Ugo-Basile type plethysmometer. The measurement was carried out before and 1.5, 3 and 4.5 hours after induction of the inflammation. The animals were orally treated with the substance to be tested 1 hour before administration of carrageenin. The effect was expressed as percentage inhibition related to the control group.

The subject of experiment [3] is dextran-induced rat paw edema. Description: Dextran-induced rat paw edema test. Format: in vivo. The settings on record: 50 mg/kg (p.o.). Here is the method: 3) Dextran-induced rat paw edema test The method of S. Gourvaisier and R. Ducrot [Arch. Int. Pharmacodyn. Ther. 102, 33 (1955)] was employed. The method described for the carrageenin edema test was followed, except that the measurements were carried out 30, 60, 90, 120 and 180 minutes after induction of the inflammation.

On to `CCOc1cc2c(cc1OCC)C(=C(C#N)SCC(O)CN1CCOCC1)NCC2.Cl` (single isomer, unassigned; (+)) [Example 28, (+)-2-(6,7-diethoxy-1,2,3,4-tetrahydro-1-isoquinolinylidene)-2-[2-hydroxy-3-(4-morpholinyl)propyl]mercaptoacetonitrile hydrochloride], for which the “Inhibition of the histamine-induced constriction of isolated tracheal smooth muscle of guinea pig pd'2” value in experiment [1] (15 min) is listed as 6.36.
As for `CCOc1cc2c(cc1OCC)C(=C(C#N)SCC(O)CN1CCOCC1)NCC2` (single isomer, unassigned; (-)) [Example 27, (-)-2-(6,7-diethoxy-1,2,3,4-tetrahydro-1-isoquinolinylidene)-2-[2-hydroxy-3-(4-morpholinyl)propyl]mercaptoacetonitrile d-camphorsulfonate], the IC50 in experiment [1] is 0.537 µM.
For the molecule `CCN(CC)CC(O)CSC(C#N)=C1NCCc2cc(OC)c(OC)cc21` (centres unmarked) [Example 1, 2-(6,7-dimethoxy-1,2,3,4-tetrahydro-1-isoquinolinylidene)-2-(3-diethylamino-2-hydroxypropyl)-mercaptoacetonitrile hydrochloride], the IC50 in experiment [1] is 9.12 µM.
As for `CCOc1cc2c(cc1OCC)C(=C(C#N)SCC(O)CN(CC)CC)NCC2` (centres unmarked) [Example 2, 2-(6,7-diethoxy-1,2,3,4-tetrahydro-1-isoquinolinylidene)-2-(3-diethylamino-2-hydroxypropyl)-mercaptoacetonitrile hydrochloride], in experiment [1], the IC50 is 12.3 µM. For the same molecule, the change in vivo at 50 mg/kg is -22.9% in experiment [2] (1.5 hours), -20.6% in experiment [2] (3 hours) and -11.3% in experiment [2] (4.5 hours). In addition, the Percentage of inhibition in experiment [3] (30 minutes) is -24%; in experiment [3] (60 minutes), -21%; in experiment [3] (90 minutes), -25%; in experiment [3] (120 minutes) it was -23%; in experiment [3] (180 minutes), -17%.
`COc1cc2c(cc1OC)C(=C(C#N)SCC(O)CN(C)CCO)NCC2` (centres unmarked) [Example 3, 2-(6,7-dimethoxy-1,2,3,4-tetrahydro-isoquinolinylidene)-2-[3-(N-methyl-N-2-hydroxyethyl)-amino-2-hydroxypropyl]-mercapto-acetonitrile hydrochloride]: the IC50 in experiment [1] is 26.9 µM.
Take `COc1cc2c(cc1OC)C(=C(C#N)SCC(O)CN(CCO)CCO)NCC2` (centres unmarked) [Example 4, 2-(6,7-dimethoxy-1,2,3,4-tetrahydro-1-isoquinolinylidene)-2-[3-(N,N-bis-2-hydroxyethyl)-amino-2-hydroxypropyl]-mercapto-acetonitrile hydrochloride dihydrate]: the IC50 in experiment [1] was 50.1 µM. The change in vivo at 50 mg/kg in experiment [2] (1.5 hours) is -25%; in experiment [2] (3 hours), -26%; in experiment [2] (4.5 hours) it was -24%.
On the same counts, the results for `CCOc1cc2c(cc1OCC)C(=C(C#N)SCC(O)CN(CCO)CCO)NCC2` (centres unmarked) [Example 5, 2-(6,7-diethoxy-1,2,3,4-tetrahydro-1-isoquinolinylidene)-2-[3-(N,N-bis-2-hydroxyethyl)-amino-2-hydroxypropyl]mercapto-acetonitrile hydrochloride] are 45.7 µM, -21%, -16.5% and -10%.
As for `COc1cc2c(cc1OC)C(=C(C#N)SCC(O)CNC(C)C)NCC2` (centres unmarked) [Example 6, 2-(6,7-dimethoxy-1,2,3,4-tetrahydro-1-isoquinolinylidene)-2-(2-hydroxy-3-isopropylaminopropyl)mercaptoacetonitrile hydrochloride hemihydrate], in experiment [1], the IC50 was 0.204 µM. Moreover, the figures for the change in vivo at 50 mg/kg in experiment [2] (1.5 hours), in experiment [2] (3 hours) and in experiment [2] (4.5 hours) were 0%, -17% and 0%, respectively.
On to `CCOc1cc2c(cc1OCC)C(=C(C#N)SCC(O)CNC(C)C)NCC2` (centres unmarked) [Example 7, 2-(6,7-diethoxy-1,2,3,4-tetrahydro-1-isoquinolinylidene)-2-(2-hydroxy-3-isopropylaminopropyl)mercaptoacetonitrile hydrochloride], for which, in experiment [1], the IC50 was 17.4 µM.
`COc1cc2c(cc1OC)C(=C(C#N)SCC(O)CNC(C)(C)C)NCC2` (centres unmarked) [Example 8, 2-(6,7-dimethoxy-1,2,3,4-tetrahydro-1-isoquinolinylidene)-2-(3-tert-butylamino-2-hydroxypropyl)mercaptoacetonitrile hydrochloride]: the IC50 in experiment [1] is 13.5 µM.
On to `CCOc1cc2c(cc1OCC)C(=C(C#N)SCC(O)CNC(C)(C)C)NCC2` (centres unmarked) [Example 9, 2-(6,7-diethoxy-1,2,3,4-tetrahydro-1-isoquinolinylidene)-2-(3-tert-butylamino-2-hydroxypropyl)mercaptoacetonitrile hydrochloride hemihydrate], for which, in experiment [1], the IC50 was 41.7 µM.
`COc1cc2c(cc1OC)C(=C(C#N)SCC(O)CNC1CCCCC1)NCC2` (centres unmarked) [Example 10, 2-(6,7-dimethoxy-1,2,3,4-tetrahydro-1-isoquinolinylidene)-2-(3-cyclohexylamino-2-hydroxypropyl)mercaptoacetonitrile hydrochloride]: in experiment [1], the IC50 was 105 µM. Also, the change in vivo at 50 mg/kg is -14.8% in experiment [2] (1.5 hours), -13% in experiment [2] (3 hours) and -7.2% in experiment [2] (4.5 hours). Also, the Percentage of inhibition in experiment [3] (30 minutes) is -25%; in experiment [3] (60 minutes) it was -24%; in experiment [3] (90 minutes), -25%; in experiment [3] (120 minutes), -27%; in experiment [3] (180 minutes), -50%.
With `CCOc1cc2c(cc1OCC)C(=C(C#N)SCC(O)CNC1CCCCC1)NCC2` (centres unmarked) [Example 11, 2-(6,7-diethoxy-1,2,3,4-tetrahydro-1-isoquinolinylidene)-2-(3-cyclohexylamino-2-hydroxypropyl)mercaptoacetonitrile hydrochloride], the IC50 in experiment [1] is 35.5 µM.
Consider `CCOc1cc2c(cc1OCC)C(=C(C#N)SCC(O)CN1CCCC1)NCC2` (centres unmarked) [Example 13, 2-(6,7-diethoxy-1,2,3,4-tetrahydro-1-isoquinolinylidene)-2-[2-hydroxy-3-(1-pyrrolidinyl)propyl]mercaptoacetonitrile hydrochloride], for which the IC50 in experiment [1] was 12.6 µM. The change in vivo at 50 mg/kg in experiment [2] (1.5 hours) was -31.8%; in experiment [2] (3 hours) it was -21.8%; in experiment [2] (4.5 hours) it was -9.05%.
For `COc1cc2c(cc1OC)C(=C(C#N)SCC(O)CN1CCCCC1)NCC2` (centres unmarked) [Example 15, 2-(6,7-dimethoxy-1,2,3,4,-tetrahydro-1-isoquinolinylidene)-2-[2-hydroxy-3-(1-piperidinyl)propil]mercaptoacetonitrile hydrochloride], the IC50 in experiment [1] was 34.7 µM.
For the molecule `N#CC(SCC(O)CN1CCOCC1)=C1NCCc2ccccc21` (centres unmarked) [Example 16, 2-(1,2,3,4-tetrahydro-1-isoquinolinylidene)-2-[2-hydroxy-3-(4-morpholinyl)propyl]mercaptoacetonitrile hydrochloride hemihydrate], the IC50 in experiment [1] was 32.4 µM. Besides, the change in vivo at 50 mg/kg in experiment [2] (1.5 hours) is -29.3%; in experiment [2] (3 hours) it was -22.2%; in experiment [2] (4.5 hours), -20%.
Turning to `COc1cc2c(cc1OC)C(=C(C#N)SCC(O)CN1CCN(C)CC1)NCC2` (centres unmarked) [Example 21, 2-(6,7-dimethoxy-1,2,3,4-tetrahydro-1-isoquinolinylidene)-2-[2-hydroxy-3-(4-methyl-1-piperazinyl)propyl]mercaptoacetonitrile hydrochloride], the IC50 in experiment [1] was 2.88 µM.
On the same count and under the same terms, in the case of `CCOc1cc2c(cc1OCC)C(=C(C#N)SCC(O)CN1CCN(C)CC1)NCC2` (centres unmarked) [Example 22, 2-(6,7-diethoxy-1,2,3,4-tetrahydro-1-isoquinolinylidene)-2-[2-hydroxy-3-(4-methyl-piperazinyl)propyl]mercaptoacetonitrile hydrochloride] it was 7.24 µM.
For the molecule `COc1cc2c(cc1OC)C(=C(C#N)SCC(CN1CCOCC1)OC(C)=O)NCC2` (centres unmarked) [Example 23, 2-(6,7-dimethoxy-1,2,3,4-tetrahydro-1-isoquinolinylidene)-2-[2-acetoxy-3-(4-morpholinyl)propyl]mercaptoacetonitrile hydrochloride], in experiment [1], the IC50 is 17.4 µM. The change in vivo at 50 mg/kg is -33.8% in experiment [2] (1.5 hours), -30.9% in experiment [2] (3 hours) and -29.5% in experiment [2] (4.5 hours).
